Key:
HminK [1] = target: T1, HminK (Homo sapiens, UniProt P15382, S38G); assay: Inhibition of growth in agar, HminK strain; format: cell-based; set-up: key: + indicates compound produced a zone on inhibition; details: cultures grown in inducing medium (2% galactose) embedded in agar; scored after 48-hour incubation at 30° C.
T1 construct: mRNA in Xenopus oocytes (A3)
Description: (§1) Cultures of strains containing the pGAL::HminK plasmid or the pGAL::TRK1 plasmid were grown in inducing media (2% galactose) at 30° C. with vigorous aeration. Inhibitors were added to cultures over a range of concentrations. Samples were removed at various intervals and the optical density at 600 nm was determined. Growth measurements were normalized to values obtained for growth in the absence of drug and are plotted as Relative Growth versus concentration (FIG. 6). Similar cultures grown in inducing medium were embedded in agar and assessed for growth in presence of the compounds listed in Table 1. Plates were scored after a 48-hour incubation at 30° C.; "+" denotes growth inhibition.

HminK [2] = target: T1, HminK; assay: Challenge of the pGAL::HminK-transformed double mutant on agar plates at 100 mM and 0.1 mM KCl; format: cell-based; details: clofilium 100 μM; 100 mM and 0.1 mM potassium chloride
Description: (§2) In another experiment, the double mutant was transformed with pGAL vector including either TRK1 or HminK as described above. The transformed strains were then separately challenged with clofilium (100 μM) and dofetilide […] at 100 mM and 0.1 mM of potassium chloride.
(§3) Cultures of K^+ transporter mutant strains containing either pYES2 vector, pGAL::TRK1 or pGAL::HminK plasmids were grown in inducing media (2% galactose) at 30° C. with vigorous aeration. A. Serial dilutions of each culture were spotted onto agar plates containing either 100 mM or 0.1 mM. KCl. B. Serial dilutions of strains containing pGAL::TRK1 or pGAL::HminK plasmids were spotted onto agar plates containing 100 μM clofilium or 1 μM dofetilide at both KCl concentrations. All plates were incubated at 30° C. and scored after 2 days.

TRK1 [3] = target: T2, TRK1 (Saccharomyces cerevisiae, UniProt P12685); assay: Challenge of the pGAL::TRK1-transformed double mutant on agar plates at 100 mM and 0.1 mM KCl; format: cell-based; details: clofilium 100 μM; 100 mM and 0.1 mM potassium chloride
T2 sequence (P12685 1-1235): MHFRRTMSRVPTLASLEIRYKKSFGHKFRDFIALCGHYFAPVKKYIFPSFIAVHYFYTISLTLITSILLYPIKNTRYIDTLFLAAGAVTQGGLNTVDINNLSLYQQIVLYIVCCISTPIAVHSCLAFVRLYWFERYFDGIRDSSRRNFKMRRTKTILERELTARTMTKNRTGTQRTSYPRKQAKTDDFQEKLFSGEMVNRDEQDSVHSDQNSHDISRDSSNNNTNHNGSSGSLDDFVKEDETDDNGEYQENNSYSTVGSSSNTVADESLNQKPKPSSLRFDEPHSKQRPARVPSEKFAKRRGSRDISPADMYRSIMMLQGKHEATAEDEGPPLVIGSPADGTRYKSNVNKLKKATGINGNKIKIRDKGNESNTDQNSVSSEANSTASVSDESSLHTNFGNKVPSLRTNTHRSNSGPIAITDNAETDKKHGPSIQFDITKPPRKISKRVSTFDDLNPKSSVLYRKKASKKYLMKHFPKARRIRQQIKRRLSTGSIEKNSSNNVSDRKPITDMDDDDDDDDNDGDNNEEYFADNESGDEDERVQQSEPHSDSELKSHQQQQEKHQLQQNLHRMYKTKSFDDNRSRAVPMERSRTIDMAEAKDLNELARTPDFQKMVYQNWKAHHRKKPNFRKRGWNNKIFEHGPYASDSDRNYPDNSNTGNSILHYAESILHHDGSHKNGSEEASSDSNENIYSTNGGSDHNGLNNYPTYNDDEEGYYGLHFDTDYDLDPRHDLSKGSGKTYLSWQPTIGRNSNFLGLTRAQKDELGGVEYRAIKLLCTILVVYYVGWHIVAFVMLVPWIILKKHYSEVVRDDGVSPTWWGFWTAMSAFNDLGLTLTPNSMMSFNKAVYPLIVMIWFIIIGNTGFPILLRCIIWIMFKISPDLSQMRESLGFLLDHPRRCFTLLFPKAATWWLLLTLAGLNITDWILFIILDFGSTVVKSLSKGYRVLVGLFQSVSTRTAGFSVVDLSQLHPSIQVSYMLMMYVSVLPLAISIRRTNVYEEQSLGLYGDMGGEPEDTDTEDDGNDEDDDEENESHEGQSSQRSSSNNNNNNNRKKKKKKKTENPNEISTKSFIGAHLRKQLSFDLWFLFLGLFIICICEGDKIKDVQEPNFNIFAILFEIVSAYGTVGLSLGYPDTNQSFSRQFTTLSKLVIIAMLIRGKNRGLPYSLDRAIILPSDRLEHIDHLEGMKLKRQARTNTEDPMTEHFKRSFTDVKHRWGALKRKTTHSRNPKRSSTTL
Description: as §2, §3

HminK [4] = target: T1, HminK; assay: Potassium ion currents of HminK mRNA transcripts expressed in Xenopus oocytes; format: cell-based; details: Xenopus oocytes expressing the HminK transcripts; clofilium 50 μM
Description: For further verification, mRNA transcripts were expressed in Xenopus oocytes. The expression products caused potassium ion currents that are blocked by clofilium (50 μM) and kinetically indistinguishable from HminK currents reported in the literature. […] Ben Efraim et al., Biochemistry 32: 2371-2377 (1993).

IKr = details: rapid, rectifying component of the delayed rectifier; literature; cited from earlier work
IKs = details: slow component of the delayed rectifier; literature; cited from earlier work
minK = details: literature and personal communication; cited from earlier work
TRK1 [5] = target: T2, TRK1; assay: Inhibition of growth in agar, TRK1 strain; format: cell-based; set-up: key: + indicates compound produced a zone on inhibition; details: cultures grown in inducing medium (2% galactose) embedded in agar; scored after 48-hour incubation at 30° C.
Description: as §1

Row | SMILES | Inhibition in agar HminK strain (HminK [1]) | Block of potassium uptake in the HminK strain (HminK [2]) | Block of potassium uptake in the TRK1 strain (TRK1 [3]) | Block of potassium ion currents (HminK [4]) | Block of IKr (IKr) | Block of IKs (IKs) | Blockage of minK expressed in Xenopus oocytes (minK) | Inhibition in agar TRK1 strain (TRK1 [5])
1 | CCCCCCC[N+](CC)(CC)CCCCc1ccc(Cl)cc1 [clofilium] | + | blocked potassium uptake in the HminK strain | not in the TRK1 strain | blocked | blocked | blocked | blockage | 
2 | CC[N+](CC)(CC)CC [TEA Cl] | + |  |  |  |  |  |  | 
3 | C=C[C@H]1C[N@@]2CC[C@H]1C[C@@H]2[C@@H](O)c1ccnc2ccc(OC)cc12 [quinidine] | + |  |  |  |  |  |  | +
4 | CC(C)NCC(O)c1ccc(NS(C)(=O)=O)cc1 (stereo not drawn) [d-sotalol] |  |  |  |  | blocked | not |  | 
5 | CN(CCOc1ccc(NS(C)(=O)=O)cc1)CCc1ccc(NS(C)(=O)=O)cc1 [dofetilide] |  |  |  |  | blocked | not |  | 

— US5620892A, “Strain of Saccharomyces cerevisiae expressing the gene encoding potassium transporter minK” (priority 1993, dated 1997)
